Experimental data published in patent US6136847A, “Water-soluble trioxanes as potent and safe antimalarial agents” (Johns Hopkins University, priority 1999, dated 2000).
Converted amounts (≈) assume the structure as drawn. Like-named read-outs stand apart in the source and are kept apart here. One block for each molecule: values may come before it.

Key:
Plasmodium falciparum = test: In vitro antimalarial assay (Plasmodium falciparum); assay type: cell-based; settings: for IC50: Plasmodium falciparum
Description: (§1) The protozoan Plasmodium falciparum is a causative agent of malaria, the single most critical infectious disease of mankind. The in vitro antimalarial activity of the C3 -substituted trioxanes was determined according to the method described in Posner et al. (13). The in vivo antimalarial activity was determined as described in Peters et al. (14).
Tables 1 and 2 present a tabulation of a number of compounds which have been synthesized along with the IC50 (in nM).

[1] = Water solubility in pH 7.4 aqueous solution; assay type: physicochemical
erythrocytes = test: Hemolysis of erythrocytes on daily IV administration to rats for 14 days; assay type: in vivo, rat; settings: daily for 14 days, artelinic acid even at a dose four-fold less than MHP-34a
Text: 4. They are nontoxic in therapeutic dose range.

P. berghei = test: In vivo antimalarial assay, mice infected with P. berghei malaria; settings: Plasmodium berghei
Description: as §1

rats = settings: high doses; cited from earlier work
[2] = test system: mouse neuroblastoma cells; settings: cited from earlier work
[3] = C3-Aryl C12-Methoxy Trioxanes, Expansion data (quadruplicate measurements), read-out: Antimalarial Activity, IC50 (Table 1)
[4] = C3-Substituted C12-Methoxy Trioxanes, Expansion data (quadruplicate measurements), read-out: Antimalarial Activity, IC50 (Table 2)
[5] = in vitro, read-out: In vitro antimalarial assay: IC50
[6] = IV, mice infected with P. berghei, read-out: ED90, IV administration

Structure (SMILES): CO[C@@H]1O[C@@]2(c3ccc(-c4ccccc4)cc3)CC[C@H]3CCCC[C@]31OO2 (relative stereo) [8a]
IC50 (Plasmodium falciparum; [3]): 76 nM

Structure (SMILES): CO[C@H]1O[C@@]2(c3ccc(-c4ccccc4)cc3)CC[C@H]3CCCC[C@]31OO2 (relative stereo) [8b]
IC50 (Plasmodium falciparum; [3]): 68 nM

Structure (SMILES): CO[C@@H]1O[C@@]2(c3ccc(F)cc3)CC[C@H]3CCCC[C@]31OO2 (relative stereo) [9a]
IC50 (Plasmodium falciparum; [3]): 65 nM

Structure (SMILES): CO[C@H]1O[C@@]2(c3ccc(F)cc3)CC[C@H]3CCCC[C@]31OO2 (relative stereo) [9b]
IC50 (Plasmodium falciparum; [3]): 30 nM

Structure (SMILES): CO[C@@H]1O[C@@]2(c3ccc(F)cc3C)CC[C@H]3CCCC[C@]31OO2 (relative stereo) [10a]
IC50 (Plasmodium falciparum; [3]): 99 nM

Structure (SMILES): CO[C@H]1O[C@@]2(c3ccc(F)cc3C)CC[C@H]3CCCC[C@]31OO2 (relative stereo) [10b]
IC50 (Plasmodium falciparum; [3]): 34 nM

Structure (SMILES): CO[C@@H]1O[C@@]2(c3ccc(CO)cc3)CC[C@H]3CCCC[C@]31OO2 (relative stereo) [12a]
IC50 (Plasmodium falciparum; [3]): 78 nM

Structure (SMILES): CO[C@H]1O[C@@]2(c3ccc(CO)cc3)CC[C@H]3CCCC[C@]31OO2 (relative stereo) [12b]
IC50 (Plasmodium falciparum; [3]): 15 nM

Structure (SMILES): O=C(O)c1ccc(CO[C@@H]2O[C@@]3(c4ccc(F)cc4)CC[C@H]4CCCC[C@]42OO3)cc1 (relative stereo) [(p-Carboxy)benzyloxy Trioxane (α)-7a]
IC50 (Plasmodium falciparum; [5]): 47 nM

Structure (SMILES): O=C(O)c1ccc(CO[C@H]2O[C@@]3(c4ccc(F)cc4)CC[C@H]4CCCC[C@]42OO3)cc1 (relative stereo) [(p-Carboxy)benzyloxy Trioxane (β)-7a]
IC50 (Plasmodium falciparum; [5]): 40 nM

Structure (SMILES): CO[C@@H]1O[C@@]2(c3ccco3)CC[C@H]3CCCC[C@]31OO2 (relative stereo) [compound 13]
IC50 (Plasmodium falciparum; [3]): 600 nM

Structure (SMILES): C[C@@H]1CC[C@H]2[C@@H](C)C(=O)O[C@@H]3O[C@@]4(C)CC[C@@H]1[C@]32OO4 [Artemisinin, artemisinin, reference compound]
IC50 (Plasmodium falciparum; [5]): 10 nM

Structure (SMILES): COC1OC2(CCC(C)C)CCC3CCCCC31OO2 (stereo not drawn) [C3 -(CH3)2 CHCH2 CH2 analog]
potency increased by a factor of, over the C3 methyl analog (Plasmodium falciparum; relative to C3 methyl analog): 5

Structure (SMILES): C[C@H]1[C@@H](OCc2ccc(C(=O)O)cc2)O[C@@H]2O[C@@]3(C)CC[C@H]4[C@H](C)CC[C@@H]1[C@@]24OO3 [artelinic acid, Artelinic acid, reference compound]
solubility [1]: ~2 mM (≈ 0.837 mg/mL)
hemolysis of erythrocytes (erythrocytes): time-dependent hemolysis
ED50 (P. berghei; oral, mice infected with P. berghei, comparator, read-out: SD50, oral): 56 mg/kg

Structure (SMILES): CO[C@H]1O[C@@H]2O[C@@]3(C)CC[C@H]4[C@H](C)CC[C@@H]([C@H]1C)[C@@]24OO3 [artemether]
neurotoxicity in rats (rats): neurotoxicity has been seen

Structure (SMILES): COc1ccc(C23CCC4CCCCC4(OO2)C(OC)O3)cc1 (stereo not drawn) [compound 11]
IC50 (Plasmodium falciparum; [3]): > 2500 nM

Structure (SMILES): C[C@H]1[C@@H](O)O[C@@H]2O[C@@]3(C)CC[C@H]4[C@H](C)CC[C@@H]1[C@@]24OO3 [dihydroartemesisin, Dihydroartemisinin]
neurotoxicity in mouse neuroblastoma cells [2]: neurotoxicity has been seen

More lines, main results first:

IC50 (Plasmodium falciparum; [3]): 100 nM
Structure (SMILES): CO[C@@H]1O[C@@]2(c3ccccc3)CC[C@H]3CCCC[C@]31OO2 (relative stereo) [16a]

IC50 (Plasmodium falciparum; [3]): 38 nM
Structure (SMILES): CO[C@H]1O[C@@]2(c3ccccc3)CC[C@H]3CCCC[C@]31OO2 (relative stereo) [16b]

IC50 (Plasmodium falciparum; [4]): 320 nM
Structure (SMILES): CO[C@@H]1O[C@@]2(CF)CC[C@H]3CCCC[C@]31OO2 (relative stereo) [118a]

IC50 (Plasmodium falciparum; [4]): 160 nM
Structure (SMILES): CO[C@H]1O[C@@]2(CF)CC[C@H]3CCCC[C@]31OO2 (relative stereo) [118b]

IC50 (Plasmodium falciparum; [4]): 39 nM
Structure (SMILES): CO[C@@H]1O[C@@]2(c3ccc(C(F)(F)F)cc3)CC[C@H]3CCCC[C@]31OO2 (relative stereo) [120a]

IC50 (Plasmodium falciparum; [4]): 53 nM
Structure (SMILES): CO[C@H]1O[C@@]2(c3ccc(C(F)(F)F)cc3)CC[C@H]3CCCC[C@]31OO2 (relative stereo) [120b]

solubility [1]: ~90 mM (≈ 30.1 mg/mL)
IC50 (Plasmodium falciparum; [5]): 1020 nM
Structure (SMILES): CO[C@@H]1O[C@@]2(c3ccc(C(=O)O)cc3)CC[C@H]3CCCC[C@]31OO2 (relative stereo) [MHP-34a, 3-(4'-Carboxyphenyl)-12α-methoxy Trioxane]
hemolysis of erythrocytes (erythrocytes): no hemolysis of erythrocytes
ED50 (P. berghei; po, read-out: In vivo antimalarial assay: ED50, oral): 9.5 mg/kg
ED50 (P. berghei; sc, read-out: In vivo antimalarial assay: ED50, subcutaneous): 19.5 mg/kg
ED90 (P. berghei; sc, read-out: In vivo antimalarial assay: ED90, subcutaneous): 92 mg/kg/day
ED90 (P. berghei; [6]): 60 mg/kg/day
ED90 (P. berghei; oral, mice infected with P. berghei, read-out: In vivo antimalarial assay: ED90, oral): 46 mg/kg/day

solubility [1]: ~60 mM (≈ 20.1 mg/mL)
IC50 (Plasmodium falciparum; [5]): 150 nM
Structure (SMILES): CO[C@H]1O[C@@]2(c3ccc(C(=O)O)cc3)CC[C@H]3CCCC[C@]31OO2 (relative stereo) [MHP-34b, 3-(4'-Carboxyphenyl)-12β-methoxy Trioxane]
ED90 (P. berghei; [6]): 60 mg/kg/day

IC50 (Plasmodium falciparum; printed as In vivo, read-out: In vitro antimalarial assay: IC50): 9.1 nM
Structure (SMILES): CCOC(=O)Cn1cccc1[C@@H]1O[C@@H]2O[C@@]3(C)CC[C@H]4[C@H](C)CC[C@@H]([C@H]1C)[C@@]24OO3 [MHP-84, 10a-(1'-(Ethoxycarbonylmethyl)pyrrol-2'-yl)-10-deoxoartemisinin]

IC50 (Plasmodium falciparum; [5]): 570 nM
Structure (SMILES): C[C@H]1[C@H](C(=O)O)O[C@@H]2O[C@@]3(C)CC[C@H]4[C@H](C)CC[C@@H]1[C@@]24OO3 [MHP-108, 10α-Carboxy-10-deoxoartemisinin]

IC50 (Plasmodium falciparum; [5]): 36 nM
Structure (SMILES): C[C@H]1[C@H](c2cccn2CC(=O)O)O[C@@H]2O[C@@]3(C)CC[C@H]4[C@H](C)CC[C@@H]1[C@@]24OO3 [MHP-153, 10a-(1'-(Carboxymethyl)pyrrol-2'-yl)-10-deoxoartemisinin]
